Source: patent US8563547B2, “(6,7-dihydro-2-nitro-5H-imidazol[2,1-b][1,3]oxazin-6-yl) amide compounds, preparation methods and uses thereof” (Shanghai Sun-Sail Pharmaceutical Science & Technology Co., …, priority 2010, dated 2013)
Converted amounts (≈) assume the structure as drawn. Read-outs that look alike come from different tables or passages of the source.

Key:
[1] = tested on: Mycobacterium tuberculosis strain H37Rv; assay: Activity test for Mycobacterium tuberculosis (MIC, liquid medium, 96-well microplate); type: cell-based; conditions: for MIC: Mycobacterium tuberculosis, liquid medium, 37° C., read-out: Minimal inhibitory concentration for H37Rv; for activity for H37Rv, times as that of PA-824: relative to PA-824; for MIC for H37Rv, times as that of ethambutol: relative to ethambutol
Method: Tested Mycobacterium tuberculosis strain H37Rv was transferred to liquid medium, cultured for 2 weeks at 37° C., drew a little culture liquid of bacterium and placed into 4 mL liquid medium, added 10˜20 sterile glass bead of 2˜3 diameter, shook for 20˜30S, absolute-rest precipitated for 10˜20 min, aspirated bacterium suspension supernatant, turbidity was adjusted to 1 Maxwell unit with liquid medium, equivalent to 1×10^7CFU/mL for use. Each drug was dissolved to 1 mg/mL by adding an appropriate amount of DMSO, filtered through 0.22 μm filter. Again diluted to the required experimental concentration with liquid medium. The final concentration of test drugs were set as follows: 0.001 μg/mL, 0.002 μg/mL, 0.004 μg/mL, 0.008 μg/mL, 0.015 μg/mL, 0.03 μg/mL, 0.06 μg/mL, 0.12 μg/mL, 0.25 μg/mL, 0.5 μg/mL, 1 μg/mL, 2 μg/mL, 4 μg/mL, 8 μg/mL and 16 μg/mL, there totally are 15 concentration gradients. 100 μL of each above-mentioned drug solution was added to 96-well microplate, further added 100 μL […] bacteria liquid so that drug concentration could reach the set final concentration, cultured at 37° C. The same drug dilution was done in triplate in parallel, control group didn't added drug, inoculation amount was set to 100%, 10% and 1% respectively. Minimal inhibitory concentration (MIC) for Mycobacterium tuberculosis by each drug was observed, and compared with MIC results of first-line antituberculosis drug ethambutol and PA-824 in clinical research phase at the same time.

physchem = type: physicochemical; conditions: for solubility at 3 days: pH 1.2, simulated gastric fluid, thermodynamic from solid
Method: 3-5 mg tested compound was added to 0.5 mL pH=1.2 HCL aqueous solution, shook for 3 days in a shaker, samples were centrifuged at 10000 r/min for 5 min, aspirated […] supernatant to 50 mL volumetric flask, added water and metered volume to the mark to make sample solution; precisely weighted 2.6 mg sample to 50 mL volumetric flask, added an appropriate amount of methanol to dissolve. Added water and metered volume to the mark, shook up to give control sample solution. Loaded 20 μL sample solution and control sample solution respectively, tested for liquid phase. Calculated as follows: Solubility (mg/mL)=C(control)*25*A(sample)/A(control)
C(control): the concentration of control sample
A(sample): peak area of liquid phase of sample solution
A(control): peak area of liquid phase of control sample solution

[2] = Tissue distribution test in mice; type: in vivo; conditions: orally administrated 25 mg/kg
Method: (§1) 16 healthy male ICR mice with 18-22 g of body weight were used. Drugs were employed by intravenous or gavage administration, administration doses were 5 mg and 25 mg/kg, administration volume was 10 mL/kg. Fasted for 12 h before test with free access to water. Uniformly fed at 2 h after administration. 0.3 mL blood was drawn through mice post-glomus venous plexus according to set time points, placed in heparinized test tube, centrifuged at 3000 r/min for 10 min, separated plasma, frozen in refrigerator at −20° C. When detected, samples were treated according to plasma sample treatment method, drug concentration in plasma was determined by LC-MS method, and calculated its pharmacokinetic parameters.
After compound 1 was orally administrated to mice (25 mg/kg), the concentrations of the compound in […], lung, brain and plasma at different time was shown as FIG. 1.

[3] = Drug metabolism test: pharmacokinetics in mice; type: in vivo, ICR mice; conditions: for MRT last: read-out: MRT0-t
Method: as §1

[4] = male, ICR, mouse, IV (5 mg/kg), plasma
[5] = male, ICR, mouse, PO (25 mg/kg), plasma

Q: Which results are given for `O=C(CN1CCC(Oc2ccc(OC(F)(F)F)c(F)c2)CC1)N[C@@H]1COc2nc([N+](=O)[O-])cn2C1` [Compound 3, 2-(4-(3-fluoro-4-(trifluoromethoxy)phenoxy)piperid-1-yl)-N-((S)-6,7-dihydro-2-nitro-5H-imidazo[2,1-b][1,3]oxazin-6-yl)acetamide]?
A: MIC [1]: 0.06 µg/mL (≈ 0.119 µM); activity for H37Rv, times as that of PA-824 [1]: 2 times; MIC for H37Rv, times as that of ethambutol [1]: 8 times

Q: Which results are given for `O=[N+]([O-])c1cn2c(n1)OC[C@@H](OCc1ccc(OC(F)(F)F)cc1)C2` [PA-824, reference compound]?
A: solubility at 3 days (physchem): 9.4 µg/mL (≈ 26.2 µM); MIC [1]: 0.12 µg/mL (≈ 0.334 µM)

Q: With `CC[C@@H](CO)NCCN[C@@H](CC)CO` [ethambutol, reference compound] as the compound, how does the MIC [1] read?
A: 0.5 µg/mL (≈ 2.45 µM)

Q: Which “water-solubility, times as that of PA-824” value (physchem) does the source give for `O=C(CCCN1CC(Oc2ccc(OC(F)(F)F)cc2)C1)N[C@@H]1COc2nc([N+](=O)[O-])cn2C1` [Compound 26, 4-(3-(4-(trifluoromethoxy)phenoxy)azetidin-1-yl)-N-((S)-6,7-dihydro-2-nitro-5H-imidazo [2,1-b][1,3]oxazin-6-yl)butyramide] here?
A: 90 times

Q: And the solubility at 3 days (physchem)?
A: 846 µg/mL (≈ 1740 µM)

Q: What about the MIC [1] of the same compound?
A: 0.03 µg/mL (≈ 0.0618 µM)

Q: What about the “activity for H37Rv, times as that of PA-824” value (from here on “activity for H37Rv, times”) [1] of the same compound?
A: 4 times

Q: And the “MIC for H37Rv, times as that of ethambutol” value (from here on “MIC for H37Rv, times as that”) [1]?
A: 16 times

Q: What does the source list for `O=C(CN1CCC(Oc2ccc(OC(F)(F)F)cc2)CC1)N[C@@H]1COc2nc([N+](=O)[O-])cn2C1` [Compound 1, (S)-N-(6,7-dihydro-2-nitro-5H-imidazo [2,1-b][1,3]oxazin-6-yl)-2-(4-(4-(trifluoromethoxy)phenoxy)piperid-1-yl)acetamide]?
A: site of major distribution [2]: lung and spleen; tissue distribution property ([2]; FIG. 1): good tissue distribution property; water-solubility, times as that of PA-824 (physchem): 79 times; solubility at 3 days (physchem): 746 µg/mL (≈ 1540 µM); MIC [1]: 0.03 µg/mL (≈ 0.0618 µM); activity for H37Rv, times as that of PA-824 [1]: 4 times; MIC for H37Rv, times as that of ethambutol [1]: 16 times; CLz ([3]; IV (5 mg/kg)): 10.7 mL/min/kg; AUC(0-inf) [3, 4]: 7860 ng·h/mL; AUC(0-t) [3, 4]: 7850 ng·h/mL; Cmax [3, 4]: 3880 ng/mL; half-life [3, 4]: 2.8 h; MRT last [3, 4]: 3.6 h; AUC(0-inf) [3, 5]: 40200 ng·h/mL; AUC(0-t) [3, 5]: 40100 ng·h/mL; Cmax [3, 5]: 4790 ng/mL; Tmax [3, 5]: 1 h; half-life [3, 5]: 2.7 h; MRT last [3, 5]: 5 h; Vd ([3]; male, ICR, mouse, plasma, IV (5 mg/kg), read-out: Vz): 2.3 L/kg; bioavailability ([3]; male, ICR, mouse, plasma, PO 25 mg/kg vs IV 5 mg/kg, read-out: F (oral bioavailability)): 102%

Q: For `CC(C)Oc1ccc(OC2CCN(CC(=O)N[C@@H]3COc4nc([N+](=O)[O-])cn4C3)CC2)cc1` [Compound 14], which MIC [1] is on record?
A: 0.06 µg/mL (≈ 0.131 µM)

Q: And the “activity for H37Rv, times” value [1]?
A: 2 times

Q: And the “MIC for H37Rv, times as that” value [1]?
A: 8 times

Q: For `O=C(CN1CCN(Cc2ccc(OC(F)(F)F)cc2)CC1)N[C@@H]1COc2nc([N+](=O)[O-])cn2C1` [Compound 17, (S)-N-(6,7-dihydro-2-nitro-5H-imidazo [2,1-b][1,3]oxazin-6-yl)-2-(4-(4-(trifluoromethoxy)benzyl)piperazin-1-yl)acetamide], which “water-solubility, times as that of PA-824” value (physchem) is on record?
A: 155 times

Q: What about the solubility at 3 days (physchem) of the same compound?
A: 1460 µg/mL (≈ 3010 µM)

Q: And the MIC [1]?
A: 0.12 µg/mL (≈ 0.248 µM)

Q: Which results are given for `O=C(CCN1CCC(Oc2ccc(OC(F)(F)F)cc2)CC1)N[C@@H]1COc2nc([N+](=O)[O-])cn2C1` [Compound 22, (S)-N-(6,7-dihydro-2-nitro-5H-imidazo [2,1-b][1,3]oxazin-6-yl)-3-(4-(4-(trifluoromethoxy)phenoxy)piperid-1-yl)propanamide]?
A: water-solubility, times as that of PA-824 (physchem): 72 times; solubility at 3 days (physchem): 677 µg/mL (≈ 1360 µM); MIC [1]: 0.06 µg/mL (≈ 0.12 µM); activity for H37Rv, times as that of PA-824 [1]: 2 times; MIC for H37Rv, times as that of ethambutol [1]: 8 times

Q: For `O=C(CN1CCC(Oc2ccc(OCCOC3CC3)cc2)CC1)N[C@@H]1COc2nc([N+](=O)[O-])cn2C1` [Compound 16, (S)-2-(4-(4-(2-(cyclopropoxy)ethoxy)phenoxy)piperid-1-yl)-N-(2-nitro-6,7-dihydro-5H-imidazo [2,1-b][1,3]oxazin-6-yl)acetamide], which MIC [1] is on record?
A: 0.03 µg/mL (≈ 0.0598 µM)

Q: And the “activity for H37Rv, times” value [1]?
A: 4 times

Q: What about the “MIC for H37Rv, times as that” value [1] of the same compound?
A: 16 times
